In US6518268B1, “Telomerase inhibitors and methods of their use” (Geron Corporation, priority 1999, dated 2003):

Biological target: T1, partially purified telomerase from a nuclear extract of HEK293 cells (Homo sapiens, UniProt O14746)
T1 construct: partially purified telomerase from a nuclear extract of HEK293 cells; endogenous in cells; host or cells: HEK293 cells, nuclear extract, partially purified
Test: In vitro telomerase inhibition, membrane hybridization method (U.S. Pat. No. 5,760,062)
Format: biochemical
Conditions: in the presence of the compound at a concentration of 10 μm
Method: Alternatively, telomerase inhibitory activity of the compounds was measured in accordance with a known method (U.S. Pat. No. 5,760,062). That is, a dimethyl sulfoxide (DMSO) solution of each agent was mixed with partially purified telomerase from a nuclear extract of HEK293 cells and incubated in the presence of an oligodeoxynucleotide to be used as the substrate and deoxynucleotide triphosphate. The obtained reacted product (DNA having a telomere sequence) was adsorbed on a membrane, and hybridization was carried out using a labeled oligonucleotide probe having a sequence complementary to the telomere sequence. The inhibition ratio was calculated based on the ratio of the signal of label on the membrane in the presence of the agent to the signal of label in the absence of the agent (control). Also, concentration of each agent which inhibits 50% of the enzyme activity based on the control was used as IC50.

T1 sequence (O14746 whole entry): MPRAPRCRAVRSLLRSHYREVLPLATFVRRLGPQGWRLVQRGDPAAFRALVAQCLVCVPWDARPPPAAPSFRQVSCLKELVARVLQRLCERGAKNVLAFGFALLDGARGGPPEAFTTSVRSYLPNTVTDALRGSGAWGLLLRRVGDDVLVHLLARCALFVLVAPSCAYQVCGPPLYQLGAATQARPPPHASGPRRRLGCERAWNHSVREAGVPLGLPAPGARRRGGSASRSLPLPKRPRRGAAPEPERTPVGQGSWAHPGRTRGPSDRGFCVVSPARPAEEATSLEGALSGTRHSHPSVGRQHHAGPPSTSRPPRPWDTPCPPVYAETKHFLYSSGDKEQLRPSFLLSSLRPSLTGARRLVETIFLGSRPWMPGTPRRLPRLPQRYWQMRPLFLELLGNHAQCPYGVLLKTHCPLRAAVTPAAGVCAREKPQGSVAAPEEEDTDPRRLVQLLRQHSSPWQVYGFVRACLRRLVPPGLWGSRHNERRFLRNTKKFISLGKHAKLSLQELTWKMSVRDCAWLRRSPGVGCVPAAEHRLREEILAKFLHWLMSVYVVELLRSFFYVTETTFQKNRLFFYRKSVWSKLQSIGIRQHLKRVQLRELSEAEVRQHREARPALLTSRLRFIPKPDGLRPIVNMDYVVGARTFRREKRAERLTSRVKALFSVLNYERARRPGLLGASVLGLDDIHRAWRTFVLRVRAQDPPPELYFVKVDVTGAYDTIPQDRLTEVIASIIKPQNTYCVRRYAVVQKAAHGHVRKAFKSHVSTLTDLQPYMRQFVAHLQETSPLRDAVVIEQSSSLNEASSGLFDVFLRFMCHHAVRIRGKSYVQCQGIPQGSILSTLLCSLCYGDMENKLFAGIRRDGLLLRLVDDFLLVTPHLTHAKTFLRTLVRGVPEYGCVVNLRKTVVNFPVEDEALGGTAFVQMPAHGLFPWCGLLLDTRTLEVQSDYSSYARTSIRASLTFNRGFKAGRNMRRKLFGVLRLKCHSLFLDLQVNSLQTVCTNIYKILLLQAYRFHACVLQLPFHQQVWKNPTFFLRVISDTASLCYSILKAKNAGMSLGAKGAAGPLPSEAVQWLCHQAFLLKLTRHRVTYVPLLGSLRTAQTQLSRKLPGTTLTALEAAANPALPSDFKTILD
T1 sequence (O60832 whole entry partner): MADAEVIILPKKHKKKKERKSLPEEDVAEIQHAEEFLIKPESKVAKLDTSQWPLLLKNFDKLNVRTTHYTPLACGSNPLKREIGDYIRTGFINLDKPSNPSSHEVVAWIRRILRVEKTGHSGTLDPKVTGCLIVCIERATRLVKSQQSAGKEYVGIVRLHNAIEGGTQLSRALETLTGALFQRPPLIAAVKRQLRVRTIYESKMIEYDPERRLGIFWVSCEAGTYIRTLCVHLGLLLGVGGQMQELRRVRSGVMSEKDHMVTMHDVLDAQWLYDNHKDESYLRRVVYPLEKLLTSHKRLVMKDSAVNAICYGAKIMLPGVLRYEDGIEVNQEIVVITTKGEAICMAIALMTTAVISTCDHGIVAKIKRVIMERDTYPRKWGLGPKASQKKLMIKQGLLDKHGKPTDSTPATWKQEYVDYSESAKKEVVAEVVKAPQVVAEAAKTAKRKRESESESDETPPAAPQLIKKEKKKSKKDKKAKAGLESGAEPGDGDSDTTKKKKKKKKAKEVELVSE
T1 sequence (Q9NPE3 whole entry partner): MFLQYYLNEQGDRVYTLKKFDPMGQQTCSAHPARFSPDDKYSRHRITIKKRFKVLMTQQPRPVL
T1 sequence (Q9NX24 whole entry partner): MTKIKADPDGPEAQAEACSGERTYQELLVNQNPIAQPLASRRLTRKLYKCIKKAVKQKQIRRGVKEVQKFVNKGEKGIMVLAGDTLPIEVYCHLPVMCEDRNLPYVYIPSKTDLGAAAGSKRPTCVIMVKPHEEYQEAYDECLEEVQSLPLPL
T1 sequence (Q9NY12 whole entry partner): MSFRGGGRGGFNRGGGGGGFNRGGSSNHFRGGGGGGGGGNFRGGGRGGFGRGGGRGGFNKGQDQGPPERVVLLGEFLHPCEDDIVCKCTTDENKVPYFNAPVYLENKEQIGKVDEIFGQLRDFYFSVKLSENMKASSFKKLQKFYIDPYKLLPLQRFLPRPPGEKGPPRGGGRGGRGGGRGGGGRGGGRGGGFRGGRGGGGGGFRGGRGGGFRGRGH

Compound | residual activity of in vitro telomerase activity (in parenthesis)
Cc1ccc([S+]([O-])c2ccc(-c3ccco3)cc2C=C2SC(=O)NC2=O)cc1 (stereo not shown) [Compound 91] | (61%)
Cc1ccc(Sc2ccc(CO)cc2C=C2SC(=O)NC2=O)cc1 [Compound 96] | (62%)
COC(=O)c1cc(C=C2SC(=O)NC2=O)c(Sc2ccc(Cl)cc2)s1 [Compound 58] | (56%)
Cc1ccc(Sc2cc(C(F)(F)F)ccc2C=C2SC(=O)NC2=O)cc1 [Compound 101] | (62%)
Cc1ccc([S+]([O-])c2ccc(-c3cccs3)cc2C=C2SC(=O)NC2=O)cc1 (stereo not shown) [Compound 93] | (55%)
O=C1NC(=O)C(=Cc2cc([N+](=O)[O-])ccc2Oc2ccccc2)S1 [Compound 110] | (53%)

Same assay, conditions: partially purified telomerase from nuclear extract of HEK293 cells

Compound | IC50 [µM]
O=C1NC(=O)C(=Cc2ccc(C(=O)c3ccccc3)cc2)S1 [Compound 31] | 15
Cc1ccc(COc2ccc(Cl)cc2C=C2SC(=O)NC2=O)cc1 [Compound 24] | 5.3
O=C1NC(=O)C(=Cc2ccc(N(Cc3ccccc3)Cc3ccccc3)cc2)S1 [Compound 36] | 5.1
Cc1ccc(COc2ccc(C=C3SC(=O)NC3=O)cc2[N+](=O)[O-])cc1 [Compound 20] | 9
O=C1NC(=O)C(=Cc2cc([N+](=O)[O-])ccc2SCc2ccc(Cl)cc2)S1 [Compound 79] | 3.5
O=C1NC(=O)C(=Cc2ccc(N(Cc3ccccc3)c3ccccc3)cc2)S1 [Compound 121] | 4
O=C1NC(=O)C(=Cc2cc(Sc3ccc(Cl)cc3)cs2)S1 [Compound 60] | 4.5
O=C1NC(=O)C(=Cc2ccc(Sc3ccc(Cl)cc3)s2)S1 [Compound 62] | 7.8
Cc1ccc(Sc2ccc(C(F)(F)F)cc2C=C2SC(=O)NC2=O)cc1 [Compound 100] | 4.4
COc1cc(O)ccc1C=C1SC(=O)NC1=O [Compound 126] | 1.3
O=C1NC(=O)C(=Cc2cc([N+](=O)[O-])ccc2Sc2ccccc2Cl)S1 [Compound 71] | 2.7
O=C1NC(=O)C(=Cc2ccc(C(O)(c3ccccc3)c3ccccc3)cc2)S1 [Compound 33] | 5.5
O=C1NC(=O)C(=Cc2cc(Br)c(Sc3ccc(Cl)cc3)s2)S1 [Compound 63] | 6.5
Cc1ccc(Sc2ccc(C=C3SC(=O)NC3=O)cc2[N+](=O)[O-])cc1 [Compound 9] | 8.3
O=C1NC(=O)C(=Cc2cc([N+](=O)[O-])ccc2N2CCOCC2)S1 [Compound 125] | 1.6
O=C1NC(=O)C(=Cc2sccc2Oc2ccccc2)S1 [Compound 59] | 2.1
O=C1NC(=O)/C(=C/c2cc(Br)c([S+]([O-])c3ccc(Cl)cc3)s2)S1 (stereo not shown) [Compound 64] | 9.7
COc1cc(C=C2SC(=O)NC2=O)ccc1Sc1ccc(C)cc1 [Compound 138] | 4.3
O=C1NC(=O)C(=Cc2cc([N+](=O)[O-])ccc2Sc2ccc3ccccc3c2)S1 [Compound 171] | 7.2
Cc1ccc(Sc2ccc(-c3ccco3)cc2C=C2SC(=O)NC2=O)cc1 [Compound 90] | 3.7
Cc1ccc(Sc2cccc(C(F)(F)F)c2C=C2SC(=O)NC2=O)cc1 [Compound 99] | 6.9
COc1ccc(Sc2ccc([N+](=O)[O-])cc2C=C2SC(=O)NC2=O)cc1 [Compound 74] | 3.7
O=C1NC(=O)C(=Cc2cc([N+](=O)[O-])ccc2SC2CCCCC2)S1 [Compound 84] | 3.9
Cc1ccc(COc2ccc(Br)cc2C=C2SC(=O)NC2=O)cc1 [Compound 25] | 4.2
O=C1NC(=O)C(=Cc2cccc(Oc3ccc(Cl)c(Cl)c3)c2)S1 [Compound 13] | 5.9
O=C1NC(=O)C(=Cc2ccccc2OC(F)(F)F)S1 [Compound 127] | 5.7
O=C1NC(=O)/C(=C/c2c3ccccc3c(Sc3ccc(Cl)cc3)c3ccccc23)S1 [Compound 128] | 2.6
O=C1NC(=O)C(=Cc2cc([N+](=O)[O-])ccc2SCCO)S1 [Compound 122] | 7.7

Compound | IC50 [µM]
O=C1NC(=O)C(=Cc2ccc(Cc3ccccc3)cc2)S1 [Compound 32] | 21
CSc1ccc(Sc2ccc([N+](=O)[O-])cc2C=C2SC(=O)NC2=O)cc1 [Compound 132] | 2.6
Cc1ccc(COc2cc(C=C3SC(=O)NC3=O)ccc2[N+](=O)[O-])cc1 [Compound 19] | 70
O=C1NC(=O)C(=Cc2ccc(CN(c3ccccc3)c3ccccc3)cc2)S1 [Compound 35] | 3.9
Cc1ccc(Sc2ccc(C#N)cc2C=C2SC(=O)NC2=O)cc1 [Compound 94] | 7.8
O=C1NC(=O)C(=Cc2cc(Sc3ccc(Cl)cc3)c(Sc3ccc(Cl)cc3)s2)S1 [Compound 61] | 0.33
O=C1NC(=O)C(=Cc2ccc(Sc3ccc(Br)cc3)c([N+](=O)[O-])c2)S1 [Compound 80] | 5.5
Cc1c(C)c2c(c(C)c1O)CCC(C)(COc1ccc(CC3SC(=O)NC3=O)cc1)O2 (stereo not shown) [Troglitazone, troglitazone, reference compound] | 16
O=C1NC(=O)C(=Cc2cc(C(=O)c3ccc(Cl)cc3)c(Sc3ccc(Cl)cc3)s2)S1 [Compound 65] | 6.2
O=C1NC(=O)C(=Cc2cc(Br)sc2Sc2ccc(Cl)cc2)S1 [Compound 43] | 2.6
O=C1NC(=O)C(=Cc2cc(C(=O)Nc3ccccc3)sc2Sc2ccc(Cl)cc2)S1 [Compound 55] | 5.3
O=C1NC(=O)C(=Cc2cc(-c3ccccc3)sc2Sc2ccc(Cl)cc2)S1 [Compound 44] | 1.9
Cc1ccc(Sc2ccc(Br)cc2C=C2SC(=O)NC2=O)cc1 [Compound 87] | 6.9
Cc1ccc(COc2ccc(-c3ccccc3)cc2C=C2SC(=O)NC2=O)cc1 [Compound 47] | 4.1
O=C1NC(=O)C(=Cc2cc([N+](=O)[O-])ccc2OCc2ccc(Cl)c(Cl)c2)S1 [Compound 17] | 10
COc1ccc(OCc2ccc(C)cc2)c(C=C2SC(=O)NC2=O)c1 [Compound 23] | 14
O=C1NC(=O)C(=Cc2cc([N+](=O)[O-])ccc2Sc2ccc(Br)cc2)S1 [Compound 73] | 7
Cc1ccc(Sc2ccc(Cl)cc2C=C2SC(=O)NC2=O)cc1 [Compound 106] | 4.5
Cc1ccc(Sc2ccc(C=C3SC(=O)NC3=O)cc2Oc2ccccc2)cc1 [Compound 137] | 5.5
Cc1ccc(COc2ccc(-c3cccs3)cc2C=C2SC(=O)NC2=O)cc1 [Compound 48] | 1.6
Cc1ccc(Sc2ccc(C(=O)OCc3ccccc3)cc2C=C2SC(=O)NC2=O)cc1 [Compound 139] | 4.4
O=C1NC(=O)C(=Cc2cc(C(=O)O)sc2Sc2ccc(Cl)cc2)S1 [Compound 53] | 0.77
O=C1NC(=O)C(=Cc2cc([N+](=O)[O-])ccc2Sc2cccc(Cl)c2)S1 [Compound 70] | 4.8
O=C1NC(=O)C(=Cc2ccc(N(c3ccccc3)c3ccccc3)cc2)S1 [Compound 26] | 4.2
Cc1ccc(COc2ccc([N+](=O)[O-])cc2C=C2SC(=O)NC2=O)cc1 [Compound 18] | 11
O=C1NC(=O)C(=Cc2cc([N+](=O)[O-])ccc2Sc2ccc(C(=O)O)cc2)S1 [Compound 129] | 8.1
O=C1NC(=O)C(=Cc2cc([N+](=O)[O-])ccc2Sc2ccc(C(F)(F)F)cc2)S1 [Compound 115] | 2.7
